Here are results for 1 compound from publication PMC9889419 (Pharmacological Reports, 2022).

Each structure is given as a SMILES string. Structures can show the parent of a compound that is named as a salt.

A short description of the data set: Forced degradation studies (HPLC). The class given is physicochemical. The procedure: HPLC conditions and equipment. The liquid chromatography system HITACHI High-Technologies Corporation (Tokyo, Japan) equipped with a solvent delivery pump (L-2130), a degasser, an autosampler (L-2200), a photodiode array detector (L-2455) and a column oven (L-2350) was used. […] The injection volume was 20 µL. Based on the registered absorption spectrum detection wavelength was selected as 230 nm. The analysis time was 15 min.
Irradiation conditions. Irradiation was conducted in a climatic chamber KBF-ICH 240 APT.lineTM (Binder GmbH, Tuttlingen, Germany) at 25 °C and 60% humidity using UVA radiation (320–400 nm) with maximum emission at 365 nm. The intensity of radiation was determined using a radiometer type VLX-3 W, Vilber Lourmat, with a CX-365 sensor, to be each time of […]. The distance between the samples and the radiation source was 13 cm.
Degradation in acidic solution. […] 8 mL of the examined solution was transferred to a glass vial and heated in an oven at 70 °C. The sample volume of 0.5 mL was taken and diluted with 0.5 mL of water. The solution was analyzed three times by HPLC method.
Degradation in basic solution. […] 4 mL of examined solution was transferred to glass vials of 8 mL capacity and heated in an oven at 70 °C. The volume of 0.5 mL was taken and diluted with 0.5 mL of 0.5 M HCl. The solution was analyzed three times by HPLC method.
Degradation in phosphate buffer at pH = 7.0. […] The volume of 8 mL of examined solution was transferred to glass vials of 8 mL capacity and stored in a dark place at 25 °C or heated in an oven at 70 °C. The volume of 0.5 mL of solution was taken and diluted with 0.5 mL of water. The solution was analyzed by HPLC method.
Degradation in the presence of oxidative agent. […] The samples were stored at 25 °C. The volume of 0.5 mL of solution was taken and diluted with 0.5 mL of water. The solution was analyzed three times by HPLC method. […] The volume of 8 mL of examined solution was transferred to glass vials of 8 mL capacity and heated in an oven at 40 °C. The volume of 0.5 mL of solution was taken and diluted with 0.5 mL of water. The solution was analyzed by HPLC method.
Degradation in the presence of reducing agent. […] 8 mL of the examined solution was transferred to 8 mL glass vials and stored at 25 °C and 40 °C. The volume of 0.5 mL of solution was taken and diluted with 0.5 mL of water. The solution was analyzed three times by HPLC method.
Photodegradation under UV irradiation. […] 2 mL of the examined solution was transferred to a quartz Petri-dishes with diameter 4 cm and sealed with parafilm. Dark control samples were prepared in the same way, but they were secured with aluminum foil. The examined samples and the dark control samples were placed in a climatic chamber at […] and humidity 60% and irradiated for 96 h. The volume of 0.5 mL of solution was taken to the vials and the solution was analyzed by HPLC method.

For the compound `CCC(CO)NCCOc1c(C)cccc1Cl` (centres unmarked) [KM-408, R,S-2-((2-(2-chloro-6-methylphenoxy)ethyl)amino)butan-1-ol hydrochloride], the degradation is, setting by setting: (0.5 M HCl, 70 °C, 232 h) 1.65%; (0.5 M NaOH, 70 °C, 232 h) 2.02%; (CuSO4, 192 h) 1.65%; (phosphate buffer pH 7.0, 25 °C, 240 h) 1.52%; (phosphate buffer pH 7.0, 70 °C, 168 h) 1.96%; (photodegradation, 96 h) 1.43%. The compound further had a degradation (reducing agent, 40 °C, 168 h) of 1.50%. Also, for the setting “H2O2, 168 h”, the degradation products was 1.84%.
